Experimental data from ChEMBL document CHEMBL6083263, “The Discovery of MORF-627, a Highly Selective Conformationally-Biased Zwitterionic Integrin αvβ6 Inhibitor for Fibrosis” (J Med Chem, 2024).
Values belong to the compound of their own block, whether it stands above or below them. The source made the active and inactive calls. No cut-off for these calls is given here.

Columns and labels:
[1] = tested on: Mus musculus; assay: Antifibrotic activity against BLM-induced C57BL/6J mouse acute lung fibrosis model assessed as reduction in collagen structure index at 3 mg/kg, po administered twice daily for 14 days; format: functional, organism-based; details: time 14.0 day
[2] = Fraction of compound absorbed into portal vein (FaFg) in Sprague-Dawley rat at 30 mg/kg, po measured upto 24 hrs by LC/MS-MS analysis; format: ADME, organism-based; details: in vivo
[3] = Tmax in cynomolgus […] at 5 mg/kg, po measured upto 24 hrs by LC/MS-MS analysis; format: ADME, organism-based, Macaca fascicularis; details: in vivo
[4] = Clearance in Sprague-Dawley rat at 1 mg/kg, iv measured upto 24 hrs by LC/MS-MS analysis; format: ADME, organism-based; details: in vivo
[5] = target: T1, Integrin alpha-V/beta-6 (Homo sapiens, UniProt P06756+P18564); assay: Inhibition of Integrin alphaVbeta6 (unknown origin) mediated TGF-beta1 activation expressed in primary epithelial cells cocultured with idiopathic pulmonary fibroblast cells assessed as downregulation of FN mRNA expression measured after 72 hrs by qPCR assay; format: cell-based, Epithelial cell
T1 sequence (P06756 31-889 limits assumed): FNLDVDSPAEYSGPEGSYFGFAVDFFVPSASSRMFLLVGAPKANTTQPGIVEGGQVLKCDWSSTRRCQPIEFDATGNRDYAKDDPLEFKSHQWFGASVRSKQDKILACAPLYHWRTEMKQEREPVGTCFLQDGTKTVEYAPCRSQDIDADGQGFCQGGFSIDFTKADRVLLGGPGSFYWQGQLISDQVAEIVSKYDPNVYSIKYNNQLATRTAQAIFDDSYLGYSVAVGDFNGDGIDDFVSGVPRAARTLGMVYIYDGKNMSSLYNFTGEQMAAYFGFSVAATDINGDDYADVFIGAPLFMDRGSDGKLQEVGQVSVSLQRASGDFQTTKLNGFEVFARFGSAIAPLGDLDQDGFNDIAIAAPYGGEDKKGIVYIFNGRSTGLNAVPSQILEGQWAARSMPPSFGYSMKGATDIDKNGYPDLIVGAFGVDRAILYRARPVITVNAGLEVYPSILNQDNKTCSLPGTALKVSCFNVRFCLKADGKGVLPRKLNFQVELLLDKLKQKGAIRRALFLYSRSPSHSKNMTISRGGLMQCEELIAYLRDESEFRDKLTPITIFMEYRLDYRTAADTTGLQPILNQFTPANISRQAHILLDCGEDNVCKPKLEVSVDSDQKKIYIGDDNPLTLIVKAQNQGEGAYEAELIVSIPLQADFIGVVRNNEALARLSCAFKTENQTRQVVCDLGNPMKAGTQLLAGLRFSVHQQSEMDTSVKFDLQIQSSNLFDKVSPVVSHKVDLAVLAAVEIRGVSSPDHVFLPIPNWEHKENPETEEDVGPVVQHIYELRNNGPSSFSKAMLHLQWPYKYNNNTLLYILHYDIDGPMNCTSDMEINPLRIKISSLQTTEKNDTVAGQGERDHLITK
T1 sequence (P06756 891-1048 limits assumed): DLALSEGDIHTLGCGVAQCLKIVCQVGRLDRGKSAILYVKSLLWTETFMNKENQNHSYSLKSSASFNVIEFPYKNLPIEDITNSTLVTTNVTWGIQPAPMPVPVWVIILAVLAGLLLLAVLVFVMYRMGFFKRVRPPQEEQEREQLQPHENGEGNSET
T1 sequence (P18564 22-788 limits assumed): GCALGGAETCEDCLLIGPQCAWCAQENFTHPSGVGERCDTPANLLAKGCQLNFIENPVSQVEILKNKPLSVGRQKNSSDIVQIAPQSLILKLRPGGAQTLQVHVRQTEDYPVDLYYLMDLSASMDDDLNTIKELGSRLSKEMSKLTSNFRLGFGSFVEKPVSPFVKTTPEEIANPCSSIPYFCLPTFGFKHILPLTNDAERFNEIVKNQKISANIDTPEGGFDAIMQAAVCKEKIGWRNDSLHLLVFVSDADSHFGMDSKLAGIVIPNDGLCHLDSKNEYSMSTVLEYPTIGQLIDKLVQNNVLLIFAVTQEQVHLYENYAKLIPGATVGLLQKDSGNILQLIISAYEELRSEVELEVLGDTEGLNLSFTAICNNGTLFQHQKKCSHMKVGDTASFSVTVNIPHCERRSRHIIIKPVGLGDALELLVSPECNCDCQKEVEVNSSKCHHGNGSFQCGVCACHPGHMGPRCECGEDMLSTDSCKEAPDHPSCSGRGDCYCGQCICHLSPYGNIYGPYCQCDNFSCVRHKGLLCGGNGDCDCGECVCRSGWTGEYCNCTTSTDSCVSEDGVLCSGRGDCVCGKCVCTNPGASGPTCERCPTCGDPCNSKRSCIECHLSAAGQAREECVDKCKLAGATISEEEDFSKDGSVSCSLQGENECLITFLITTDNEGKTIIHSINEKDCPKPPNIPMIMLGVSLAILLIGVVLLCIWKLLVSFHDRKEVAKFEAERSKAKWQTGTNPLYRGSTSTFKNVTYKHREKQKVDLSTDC

[6] = Half-life in Sprague-Dawley rat at 1 mg/kg, iv measured upto 24 hrs by LC/MS-MS analysis; format: ADME, organism-based; details: in vivo
[7] = Oral bioavailability in cynomolgus […] at 5 mg/kg measured upto 24 hrs by LC/MS-MS analysis; format: ADME, organism-based, Macaca fascicularis; details: in vivo
[8] = target: T1, Integrin alpha-V/beta-6; assay: Displacement of fluorescein labeled GRGDLGRL from human Integrin alphaVbeta6 preincubated for 15 mins followed by fluorescein labeled GRGDLGRL addition and measured after 1 hr by fluorescence polarization assay; format: protein-complex assay
[9] = Volume of distribution at steady state in cynomolgus monkey at 1 mg/kg, iv measured upto 24 hrs by LC/MS-MS analysis; format: ADME, organism-based, Macaca fascicularis; details: in vivo, read-out: Vdss
[10] = target: T1, Integrin alpha-V/beta-6; assay: Inhibition of Integrin alphaVbeta6 (unknown origin) mediated TGF-beta1 activation expressed in primary epithelial cells cocultured with idiopathic pulmonary fibroblast cells assessed as downregulation of COL3A1 mRNA expression measured after 72 hrs by qPCR assay; format: cell-based, Epithelial cell
[11] = target: Integrin alpha-V/beta-8 (Homo sapiens, UniProt P06756+P26012); assay: Displacement of fluorescein labeled GRGDLGRL from human Integrin alphaVbeta8 preincubated for 15 mins followed by fluorescein labeled GRGDLGRL addition and measured after 1 hr by fluorescence polarization assay; format: protein-complex assay
Integrin alpha-V/beta-8, sequence (P06756 31-889 limits assumed): as the sequence (P06756 31-889 limits assumed) above
Integrin alpha-V/beta-8, sequence (P06756 891-1048 limits assumed): as the sequence (P06756 891-1048 limits assumed) above
Integrin alpha-V/beta-8, sequence (P26012 43-769 limits assumed): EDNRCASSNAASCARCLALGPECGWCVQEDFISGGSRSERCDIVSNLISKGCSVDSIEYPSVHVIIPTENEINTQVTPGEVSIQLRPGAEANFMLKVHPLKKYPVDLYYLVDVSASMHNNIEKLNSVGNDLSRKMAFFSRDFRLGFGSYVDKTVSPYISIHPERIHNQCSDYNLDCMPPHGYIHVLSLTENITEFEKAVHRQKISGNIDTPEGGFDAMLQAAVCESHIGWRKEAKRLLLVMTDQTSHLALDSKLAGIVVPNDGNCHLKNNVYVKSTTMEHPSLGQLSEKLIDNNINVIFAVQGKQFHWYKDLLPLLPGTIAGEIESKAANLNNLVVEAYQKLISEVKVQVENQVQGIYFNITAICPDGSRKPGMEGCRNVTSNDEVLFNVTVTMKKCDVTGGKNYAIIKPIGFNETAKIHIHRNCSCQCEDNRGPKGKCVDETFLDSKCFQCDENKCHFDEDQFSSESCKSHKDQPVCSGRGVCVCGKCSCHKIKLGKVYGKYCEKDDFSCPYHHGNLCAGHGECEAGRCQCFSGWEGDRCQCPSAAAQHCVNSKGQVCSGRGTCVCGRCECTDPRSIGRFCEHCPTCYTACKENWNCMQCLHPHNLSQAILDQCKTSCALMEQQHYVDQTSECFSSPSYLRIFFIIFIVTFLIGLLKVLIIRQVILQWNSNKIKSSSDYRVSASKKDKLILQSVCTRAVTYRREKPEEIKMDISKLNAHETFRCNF

[12] = Tmax in Sprague-Dawley rat at 30 mg/kg, po measured upto 24 hrs by LC/MS-MS analysis; format: ADME, organism-based; details: in vivo
[13] = Fraction of compound absorbed into portal vein (FaFg) in C57BL/6 mouse at 30 mg/kg, po measured upto 24 hrs by LC/MS-MS analysis; format: ADME, organism-based; details: in vivo
[14] = Oral bioavailability in C57BL/6 mouse at 30 mg/kg measured upto 24 hrs by LC/MS-MS analysis; format: ADME, organism-based; details: in vivo
[15] = Clearance in cynomolgus monkey at 1 mg/kg, iv measured upto 24 hrs by LC/MS-MS analysis; format: ADME, organism-based, Macaca fascicularis; details: in vivo
[16] = AUCinfinity in cynomolgus […] at 5 mg/kg, po measured upto 24 hrs by LC/MS-MS analysis; format: ADME, organism-based, Macaca fascicularis; details: in vivo
[17] = AUCinfinity in Sprague-Dawley rat at 30 mg/kg, po measured upto 24 hrs by LC/MS-MS analysis; format: ADME, organism-based; details: in vivo
[18] = tested on: Mus musculus; assay: Antifibrotic activity against BLM-induced po dosed C57BL/6J mouse acute lung fibrosis model assessed as reduction in pSMAD2 level administered twice daily for 3 days; format: functional, organism-based; details: 72 h
[19] = AUCinfinity in cynomolgus monkey at 1 mg/kg, iv measured upto 24 hrs by LC/MS-MS analysis; format: ADME, organism-based, Macaca fascicularis; details: in vivo
[20] = AUCinfinity in C57BL/6 mouse at 1 mg/kg, iv measured upto 24 hrs by LC/MS-MS analysis; format: ADME, organism-based; details: in vivo
[21] = tested on: Mus musculus; assay: Antifibrotic activity against BLM-induced C57BL/6J mouse acute lung fibrosis model assessed as reduction in pSMAD2:total protein ratio at 0.1 to 100 mg/kg, po administered twice daily for 3 days; format: functional, organism-based; details: dose 0.1-100 mg/kg, time 3.0 day
[22] = Half-life in Sprague-Dawley rat at 30 mg/kg, po measured upto 24 hrs by LC/MS-MS analysis; format: ADME, organism-based; details: in vivo
[23] = Cmax in Sprague-Dawley rat at 30 mg/kg, po measured upto 24 hrs by LC/MS-MS analysis; format: ADME, organism-based; details: in vivo
[24] = AUCinfinity in Sprague-Dawley rat at 1 mg/kg, iv measured upto 24 hrs by LC/MS-MS analysis; format: ADME, organism-based; details: in vivo
[25] = target: T1, Integrin alpha-V/beta-6; assay: Inhibition of Integrin alphaVbeta6 (unknown origin) mediated TGF-beta1 activation expressed in primary epithelial cells cocultured with idiopathic pulmonary fibroblast cells assessed as downregulation of COL1A1 mRNA expression measured after 72 hrs by qPCR assay; format: cell-based, Epithelial cell
[26] = target: Integrin alpha-V/beta-1 (Homo sapiens, UniProt P05556+P06756); assay: Displacement of fluorescein labeled ACRGDGWC from human Integrin alphaVbeta1 preincubated for 15 mins followed by fluorescein labeled ACRGDGWC addition and measured after 1 hr by fluorescence polarization assay; format: protein-complex assay
Integrin alpha-V/beta-1, sequence (P05556 21-798 limits assumed): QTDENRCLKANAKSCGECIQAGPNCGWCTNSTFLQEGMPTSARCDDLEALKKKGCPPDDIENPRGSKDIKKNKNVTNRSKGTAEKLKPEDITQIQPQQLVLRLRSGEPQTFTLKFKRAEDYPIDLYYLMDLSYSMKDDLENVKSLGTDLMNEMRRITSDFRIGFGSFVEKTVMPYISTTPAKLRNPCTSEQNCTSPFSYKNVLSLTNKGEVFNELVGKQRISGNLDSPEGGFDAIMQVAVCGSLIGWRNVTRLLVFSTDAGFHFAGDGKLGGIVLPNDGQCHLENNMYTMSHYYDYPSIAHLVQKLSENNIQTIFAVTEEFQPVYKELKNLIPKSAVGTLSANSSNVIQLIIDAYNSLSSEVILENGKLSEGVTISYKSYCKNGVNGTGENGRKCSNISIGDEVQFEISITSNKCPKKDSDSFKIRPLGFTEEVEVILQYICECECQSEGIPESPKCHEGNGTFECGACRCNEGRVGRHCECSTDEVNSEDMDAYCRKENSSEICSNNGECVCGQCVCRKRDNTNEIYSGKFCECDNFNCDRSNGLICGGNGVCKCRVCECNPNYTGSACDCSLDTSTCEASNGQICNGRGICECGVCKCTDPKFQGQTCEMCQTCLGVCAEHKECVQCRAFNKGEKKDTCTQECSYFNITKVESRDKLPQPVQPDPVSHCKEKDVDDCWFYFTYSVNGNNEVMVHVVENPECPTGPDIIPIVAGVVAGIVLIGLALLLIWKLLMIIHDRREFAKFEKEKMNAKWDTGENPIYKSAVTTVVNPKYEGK
Integrin alpha-V/beta-1, sequence (P06756 31-889 limits assumed): as the sequence (P06756 31-889 limits assumed) above
Integrin alpha-V/beta-1, sequence (P06756 891-1048 limits assumed): as the sequence (P06756 891-1048 limits assumed) above

[27] = Fraction of compound absorbed into portal vein (FaFg) in cynomolgus monkey at 30 mg/kg, po measured upto 24 hrs by LC/MS-MS analysis; format: ADME, organism-based, Macaca fascicularis; details: in vivo
[28] = Oral bioavailability in Sprague-Dawley rat at 30 mg/kg measured upto 24 hrs by LC/MS-MS analysis; format: ADME, organism-based; details: in vivo
[29] = tested on: Mus musculus; assay: Antifibrotic activity against BLM-induced C57BL/6J mouse acute lung fibrosis model assessed as reduction in modified ashcroft score at 1 to 10 mg/kg, po administered twice daily for 14 days; format: functional; parameters: scale not given: the % may be the effect or the level left; details: dose 1-10 mg/kg, time 14 day
[30] = Cmax in C57BL/6 mouse at 30 mg/kg, po measured upto 24 hrs by LC/MS-MS analysis; format: ADME, organism-based; details: in vivo
[31] = Half-life in cynomolgus monkey at 1 mg/kg, iv measured upto 24 hrs by LC/MS-MS analysis; format: ADME, organism-based, Macaca fascicularis; details: in vivo
[32] = Half-life in C57BL/6 mouse at 30 mg/kg, po measured upto 24 hrs by LC/MS-MS analysis; format: ADME, organism-based; details: in vivo
[33] = tested on: Mus musculus; assay: Antifibrotic activity against BLM-induced C57BL/6J mouse acute lung fibrosis model assessed as reduction in total collagen deposition at 3 mg/kg, po administered twice daily for 14 days; format: functional, organism-based; details: time 14.0 day
[34] = Volume of distribution at steady state in Beagle dog at 1 mg/kg, iv measured upto 24 hrs by LC/MS-MS analysis; format: ADME, organism-based, Canis lupus familiaris; details: in vivo, read-out: Vdss
[35] = Volume of distribution at steady state in C57BL/6 mouse at 1 mg/kg, iv measured upto 24 hrs by LC/MS-MS analysis; format: ADME, organism-based; details: in vivo, read-out: Vdss
[36] = tested on: Mus musculus; assay: Antifibrotic activity against BLM-induced C57BL/6J mouse acute lung fibrosis model assessed as reduction in collagen fiber density at 3 mg/kg, po administered twice daily for 14 days; format: functional, organism-based; details: time 14.0 day
[37] = AUCinfinity in C57BL/6 mouse at 30 mg/kg, po measured upto 24 hrs by LC/MS-MS analysis; format: ADME, organism-based; details: in vivo
[38] = Cmax in cynomolgus […] at 5 mg/kg, po measured upto 24 hrs by LC/MS-MS analysis; format: ADME, organism-based, Macaca fascicularis; details: in vivo
[39] = Clearance in C57BL/6 mouse at 1 mg/kg, iv measured upto 24 hrs by LC/MS-MS analysis; format: ADME, organism-based; details: in vivo
[40] = Half-life in Beagle dog at 1 mg/kg, iv measured upto 24 hrs by LC/MS-MS analysis; format: ADME, organism-based, Canis lupus familiaris; details: in vivo
[41] = target: T1, Integrin alpha-V/beta-6; assay: Binding affinity to human Integrin alphaVbeta6 overexpressed in HEK293 cells incubated for 15 mins in presence of human serum by flow cytometry assay; format: cell-based
[42] = Oral bioavailability in Sprague-Dawley rat at 10 mg/kg measured upto 24 hrs by LC/MS-MS analysis; format: ADME, organism-based; details: in vivo
[43] = tested on: Mus musculus; assay: Antifibrotic activity against BLM-induced C57BL/6J mouse acute lung fibrosis model assessed as reduction in picrosirius red positive area at 1 to 10 mg/kg, po administered twice daily for 14 days; format: functional, organism-based; details: dose 1-10 mg/kg, time 14.0 day
[44] = Half-life in cynomolgus […] at 5 mg/kg, po measured upto 24 hrs by LC/MS-MS analysis; format: ADME, organism-based, Macaca fascicularis; details: in vivo
[45] = AUCinfinity in Beagle dog at 1 mg/kg, iv measured upto 24 hrs by LC/MS-MS analysis; format: ADME, organism-based, Canis lupus familiaris; details: in vivo
[46] = Octanol/water partition coefficient, logD of the compound; format: physicochemical
[47] = Volume of distribution at steady state in Sprague-Dawley rat at 1 mg/kg, iv measured upto 24 hrs by LC/MS-MS analysis; format: ADME, organism-based; details: in vivo, read-out: Vdss
[48] = target: T1, Integrin alpha-V/beta-6; assay: Inhibition of Integrin alphaVbeta6 (unknown origin) mediated TGF-beta1 activation expressed in HEK293 cells cocultured with MLEC cells expressing luciferase reporter; format: cell-based
[49] = Tmax in C57BL/6 mouse at 30 mg/kg, po measured upto 24 hrs by LC/MS-MS analysis; format: ADME, organism-based; details: in vivo
[50] = Half-life in C57BL/6 mouse at 1 mg/kg, iv measured upto 24 hrs by LC/MS-MS analysis; format: ADME, organism-based; details: in vivo
[51] = tested on: Mus musculus; assay: Antifibrotic activity against BLM-induced po dosed C57BL/6J mouse acute lung fibrosis model assessed as reduction in modified ashcroft score administered twice daily for 14 days; format: functional; parameters: scale not given: the % may be the effect or the level left; details: time 14 day

FaFg [2]: 123% | Tmax [3]: 1 h | clearance [4]: 28 mL/min/kg | IC50 [5]: 20.3 nM | half-life [6]: 1.9 h | bioavailability [7]: 16% | IC50 [8]: 1.1 nM | Vd [9]: 2.45 L/kg | IC50 [10]: 12.8 nM | IC50 [11]: 330 nM | Tmax [12]: 0.25 h | FaFg [13]: 83% | bioavailability [14]: 66% | clearance [15]: 10.5 mL/min/kg | AUC(0-inf) [16]: 1600 ng·h/mL | AUC(0-inf) [17]: 14000 ng·h/mL | IC50 [18]: 8.3 nM | AUC(0-inf) [19]: 1590 ng·h/mL | AUC(0-inf) [20]: 940 ng·h/mL | t1/2 [22]: 1.8 h | Cmax [23]: 14000 ng/mL | AUC(0-inf) [24]: 610 ng·h/mL | IC50 [25]: 1.8 nM | IC50 [26]: 490 nM | FaFg [27]: 21% | bioavailability [28]: 74% | Cmax [30]: 7600 ng/mL | half-life [31]: 4.9 h | t1/2 [32]: 2.6 h | Vd [34]: 1.84 L/kg | Vd [35]: 2.07 L/kg | AUC(0-inf) [37]: 19000 ng·h/mL | Cmax [38]: 540 ng/mL | clearance [39]: 18 mL/min/kg | half-life [40]: 4.9 h | IC50 [41]: 9.2 nM | bioavailability [42]: 22% | t1/2 [44]: 4.8 h | AUC [45]: 2970 ng·h/mL | logD [46]: 2.2 | Vd [47]: 3.1 L/kg | IC50 [48]: 2.63 nM | Tmax [49]: 0.25 h | half-life [50]: 1.9 h
Compound: O=C(O)[C@H](c1cc(F)ccc1[C@@H]1CCC2(CC2)CO1)N1CC[C@@H](OCCCCc2ccc3c(n2)NCCC3)C1
Activity [1]: Active | Activity [21]: Active; Showed Significant Activity At 10 To 30 Mg/Kg | Activity [29]: 33% | Activity [33]: Active | Activity [36]: Active | Activity [43]: Active; No Statistical Significant Activity

Compound: Cc1cccc(-c2[nH]c(C(C)(C)C)nc2-c2ccc3nccnc3c2)n1
Activity [51]: 37%
